# Assay results as given in patent US11524966B1 (Valo Early Discovery, Inc., priority 2017, dated 2022).
# Biological target: T1, USP28 (USP28-5(1-1077)-TEV-6*His; LifeSensors) (Homo sapiens, UniProt Q96RU2)
# T1 construct: construct USP28 (USP28-5(1-1077)-TEV-6*His; LifeSensors); TEV cleavage site (C); 6xHis (C); purchased LifeSensors
# T1 sequence (Q96RU2 1-1077): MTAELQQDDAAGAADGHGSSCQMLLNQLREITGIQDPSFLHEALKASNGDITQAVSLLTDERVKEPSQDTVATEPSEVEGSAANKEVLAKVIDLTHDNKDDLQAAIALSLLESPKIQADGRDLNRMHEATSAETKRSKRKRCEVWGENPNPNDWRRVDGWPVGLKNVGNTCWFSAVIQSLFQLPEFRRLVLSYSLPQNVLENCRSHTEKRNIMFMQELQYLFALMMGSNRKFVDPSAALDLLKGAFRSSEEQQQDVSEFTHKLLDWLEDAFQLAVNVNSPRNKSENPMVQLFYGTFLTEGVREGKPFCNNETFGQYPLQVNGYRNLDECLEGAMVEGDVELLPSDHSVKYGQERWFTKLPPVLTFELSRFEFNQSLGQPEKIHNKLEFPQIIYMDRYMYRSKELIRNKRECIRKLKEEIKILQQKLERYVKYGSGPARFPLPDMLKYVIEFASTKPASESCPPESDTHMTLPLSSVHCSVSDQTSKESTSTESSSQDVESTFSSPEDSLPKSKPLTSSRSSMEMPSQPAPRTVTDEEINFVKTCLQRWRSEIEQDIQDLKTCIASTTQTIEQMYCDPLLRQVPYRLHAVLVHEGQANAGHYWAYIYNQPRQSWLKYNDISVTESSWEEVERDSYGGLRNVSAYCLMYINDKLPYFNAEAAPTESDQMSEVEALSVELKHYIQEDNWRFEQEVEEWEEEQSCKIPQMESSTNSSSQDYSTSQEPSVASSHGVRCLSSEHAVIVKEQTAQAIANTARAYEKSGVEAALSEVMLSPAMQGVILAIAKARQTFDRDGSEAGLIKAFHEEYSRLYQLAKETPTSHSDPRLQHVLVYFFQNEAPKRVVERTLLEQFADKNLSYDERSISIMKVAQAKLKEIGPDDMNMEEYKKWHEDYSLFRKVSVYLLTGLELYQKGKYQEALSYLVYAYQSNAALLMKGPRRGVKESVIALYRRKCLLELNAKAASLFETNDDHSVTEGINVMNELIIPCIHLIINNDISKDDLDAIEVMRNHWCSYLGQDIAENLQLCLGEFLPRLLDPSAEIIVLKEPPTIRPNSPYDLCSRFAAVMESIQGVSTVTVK
# Assay: Ubiquitin-Rhodamine 110 Assay for USP28 Activity, Example A-1(b)
# Format: biochemical
# Conditions: Ub-Rh110 assay, Example A-1(b)
# Summary of the method: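 Single-point screening used 10 μM compound with 90 min room-temperature incubation; follow-up dose-responses (25 μM top, 3-fold) used 75 pM USP28 1-1077 construct, 30 min compound preincubation, 25 nM Ub-Rh110, 20 min reaction, citric acid quench. Rh110 fluorescence normalised to no-enzyme and DMSO controls; IC50 from 4-parameter logistic fit.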
row,SMILES,USP28 A-1(b) IC50 range
1,"Cc1ccc2c(N)c(C(=O)N[C@H]3COc4cc(N5CCN[C@@H](C)[C@H]5C)ccc4C3)sc2n1 (single isomer, unassigned) [Example 1-7]",++++ (0.001-0.05 μM)

# Same assay, conditions: Ubiquitin-Rhodamine 110 assay, format Example A-1(b)
row,SMILES,USP28 A-1(b) IC50 range
1,"Cc1nc2sc(C(=O)N[C@H]3CCc4cc(N5CCNCC5)ccc4C3)c(N)c2s1 (single isomer, unassigned) [Example 11-33]",+ (>2 μM)
2,"Cc1nc2sc(C(=O)N[C@@H]3CCc4cc(N5CC6CCC(C5)N6)ccc4C3)c(N)c2s1 (single isomer, unassigned) [Example 12-2]",++ (0.2-2 μM)
3,"Cc1ccc2c(N)c(C(=O)N[C@@H]3CCc4c(ccc(N5CC6CCC(C5)N6)c4C#N)C3)sc2n1 (single isomer, unassigned) [Example 14-1]",++++ (0.001-0.05 μM)
4,"Cc1ccc2c(N)c(C(=O)N[C@H]3CCc4c(ccc(N5CC6CCC(C5)N6)c4C#N)C3)sc2n1 (single isomer, unassigned) [Example 14-2]",++ (0.2-2 μM)
5,"Cc1ccc2c(N)c(C(=O)N[C@@H]3CCc4cc(N5CC6CCC(C5)N6)c(C#N)cc4C3)sc2n1 (single isomer, unassigned) [Example 14-3]",++ (0.2-2 μM)
6,"Cc1ccc2c(N)c(C(=O)N[C@H]3CCc4cc(N5CC6CCC(C5)N6)c(C#N)cc4C3)sc2n1 (single isomer, unassigned) [Example 14-4]",++++ (0.001-0.05 μM)
7,"Cc1cnc2c(N)c(C(=O)N[C@@H]3CCc4c(ccc(N5CC6CCC(C5)N6)c4C#N)C3)sc2n1 (single isomer, unassigned) [Example 14-5]",+++ (0.05-0.2 μM)
8,"Cc1cnc2c(N)c(C(=O)N[C@H]3CCc4c(ccc(N5CC6CCC(C5)N6)c4C#N)C3)sc2n1 (single isomer, unassigned) [Example 14-6]",+ (>2 μM)
9,"Cc1cnc2c(N)c(C(=O)N[C@@H]3CCc4cc(N5CC6CCC(C5)N6)c(C#N)cc4C3)sc2n1 (single isomer, unassigned) [Example 14-7]",++ (0.2-2 μM)
10,"Cc1cnc2c(N)c(C(=O)N[C@H]3CCc4cc(N5CC6CCC(C5)N6)c(C#N)cc4C3)sc2n1 (single isomer, unassigned) [Example 14-8]",++++ (0.001-0.05 μM)
